Converted amounts (≈) assume the structure as drawn. Like-named read-outs stand apart in the source and are kept apart here. Where a SMILES comes first, the peptide text is derived from it. Bridges are numbered along the chain shown (N, C = ends). [ ]: non-standard residue; d: D form. The star is where a group is joined. X46 = O=C(c1cc(Br)nc(Br)c1)*; X38 = O=C(c1cc2sccc2[nH]1)*; X39 = O=C(c1noc2ccccc12)*; Dab = NCC[C@H](N)C(=O)O; Abu = CC[C@H](N)C(=O)O; Dap = NC[C@H](N)C(=O)O
Assays:
Assay type in all cases: cell-based
[1] = system: Klebsiella pneumoniae FADDI-KP032; conditions: FADDI-KP032
Method: (§1) MICs of the lipopeptides (trifluoroacetic acid salt, TFA) were determined by broth microdilution in cation-adjusted Mueller-Hinton broth (CAMHB) (Oxoid Australia, Thebarton, SA, Australia) according to the Clinical and Laboratory Standards Institute protocol (Clinical and Laboratory Standards Institute, Performance standards for antimicrobial susceptibility testing; twentyforth informational supplement M100-S24. Wayne, Pa., 2014). Polymyxin B sulphate was employed as the control. Antimicrobial activity of Compounds 1-104 against polymyxin-susceptible Gram-negative bacteria was examined. The following isolates were examined: Pseudomonas aeruginosa ATCC 27853, Pseudomonas aeruginosa FADDI-PA022*, Pseudomonas aeruginosa FADDI-PA01*, Pseudomonas aeruginosa FADDI-PA038*, Acinetobacter baumannii FADDI-AB034*, Acinetobacter baumannii ATCC 17978, Acinetobacter baumannii FADDI-AB030*, Klebsiella pneumoniae FADDI-KP032, Klebsiella pneumoniae FADDI-KP022*, Klebsiella pneumoniae Kp BM1*, Enterobacter cloacae FADDI-EC006, Enterobacter cloacae FADDI-EC001, and Enterobacter cloacae FADDI-EC003 (* Multi drug-resistant clinical isolates, § New Delhi Metallo-beta-lactamase-1 (NDM-1) producing). The results are illustrated in Tables 4 and 5.

[2] = system: Pseudomonas aeruginosa ATCC 27853; conditions: ATCC 27853
Method: as §1

[3] = system: Enterobacter cloacae FADDI-EC006; conditions: FADDI-EC006
Method: as §1

[4] = system: Klebsiella pneumoniae FADDI-KP022; conditions: FADDI-KP022
Method: as §1

[5] = system: Pseudomonas aeruginosa FADDI-PA01; conditions: FADDI-
Method: as §1

[6] = system: Pseudomonas aeruginosa FADDI-PA022; conditions: FADDI-PA022
Method: as §1

[7] = system: Enterobacter cloacae FADDI-EC001; conditions: FADDI-EC001
Method: as §1

[8] = system: Klebsiella pneumoniae Kp BM1; conditions: Kp BM1
Method: as §1

[9] = system: Acinetobacter baumannii ATCC 17978; conditions: ATCC 17978
Method: as §1

[10] = system: Enterobacter cloacae FADDI-EC003; conditions: FADDI-EC003
Method: as §1

[11] = system: Acinetobacter baumannii FADDI-AB034; conditions: FADDI-AB034
Method: as §1

[12] = system: Pseudomonas aeruginosa FADDI-PA038; conditions: FADDI-PA038
Method: as §1

[13] = system: Acinetobacter baumannii FADDI-AB030; test: microbe, parasite or virus in culture; conditions: for MIC: Acinetobacter baumannii
Method: as §1, with “Antimicrobial activity of Compounds 1-104 against polymyxin-susceptible Gram-negative bacteria was examined.” left out, “5. […]” for “5.”

[14] = FADDIAB030, clinically used antibiotics, clinical isolate A. baumannii FADDI-AB030, read-out: minimum inhibitory concentration

Compound `CC[C@@H]1NC(=O)[C@@H](CC(C)C)NC(=O)[C@H](CCN)NC(=O)[C@@H](NC(=O)[C@H](CN)NC(=O)[C@@H](NC(=O)[C@H](CCN)NC(=O)c2noc3ccccc23)[C@@H](C)O)CCNC(=O)[C@H]([C@@H](C)O)NC(=O)[C@H](CCN)NC(=O)[C@H](CCN)NC1=O` [Compound 75] (X39-[Dab]T[Dap][Dab][Dab][dL][Abu][Dab][Dab]T; lactam 4-C) has a Minimum inhibitory concentration [1] of 0.25 µg/mL (≈ 0.221 µM), a Minimum inhibitory concentration [2] of 0.5 µg/mL (≈ 0.442 µM) and a Minimum inhibitory concentration [3] of 1 µg/mL (≈ 0.883 µM). It also gave a Minimum inhibitory concentration [4] of under 0.125 µg/mL, a Minimum inhibitory concentration [5] of 0.5 µg/mL (≈ 0.442 µM) and a Minimum inhibitory concentration [6] of 0.5 µg/mL (≈ 0.442 µM). For the same compound, the Minimum inhibitory concentration [7] was under 0.125 µg/mL, the Minimum inhibitory concentration [8] was 0.25 µg/mL (≈ 0.221 µM) and the Minimum inhibitory concentration [9] was 1 µg/mL (≈ 0.883 µM). For the same compound, the Minimum inhibitory concentration [10] was under 0.125 µg/mL, the Minimum inhibitory concentration [11] was 0.5 µg/mL (≈ 0.442 µM) and the Minimum inhibitory concentration [12] was 1 µg/mL (≈ 0.883 µM). For the same compound, the Minimum inhibitory concentration ([13]; FADDI-AB030) was 0.5 µg/mL (≈ 0.442 µM).
Work on `CC[C@@H]1NC(=O)[C@@H](CC(C)C)NC(=O)[C@H](CCN)NC(=O)[C@@H](NC(=O)[C@H](CN)NC(=O)[C@@H](NC(=O)[C@H](CCN)NC(=O)c2cc(Br)nc(Br)c2)[C@@H](C)O)CCNC(=O)[C@H]([C@@H](C)O)NC(=O)[C@H](CCN)NC(=O)[C@H](CCN)NC1=O` [Compound 28] (X46-[Dab]T[Dap][Dab][Dab][dL][Abu][Dab][Dab]T; lactam 4-C) yielded a Minimum inhibitory concentration [1] of 0.25 µg/mL (≈ 0.2 µM), a Minimum inhibitory concentration [2] of 0.25 µg/mL (≈ 0.2 µM) and a Minimum inhibitory concentration [3] of under 0.125 µg/mL. For the same compound, the Minimum inhibitory concentration [4] was under 0.125 µg/mL, the Minimum inhibitory concentration [5] was 1 µg/mL (≈ 0.8 µM) and the Minimum inhibitory concentration [6] was 0.25 µg/mL (≈ 0.2 µM). It also gave a Minimum inhibitory concentration [7] of 0.25 µg/mL (≈ 0.2 µM), a Minimum inhibitory concentration [8] of 0.25 µg/mL (≈ 0.2 µM) and a Minimum inhibitory concentration [9] of 0.25 µg/mL (≈ 0.2 µM). It also gave a Minimum inhibitory concentration [10] of 0.25 µg/mL (≈ 0.2 µM), a Minimum inhibitory concentration [11] of 0.25 µg/mL (≈ 0.2 µM) and a Minimum inhibitory concentration [12] of 1 µg/mL (≈ 0.8 µM). For the same compound, the Minimum inhibitory concentration ([13]; FADDI-AB030) was 0.25 µg/mL (≈ 0.2 µM).
`CC[C@@H]1NC(=O)[C@@H](CC(C)C)NC(=O)[C@H](CCN)NC(=O)[C@@H](NC(=O)[C@H](CN)NC(=O)[C@@H](NC(=O)[C@H](CCN)NC(=O)c2cc3sccc3[nH]2)[C@@H](C)O)CCNC(=O)[C@H]([C@@H](C)O)NC(=O)[C@H](CCN)NC(=O)[C@H](CCN)NC1=O` [Compound 90] (X38-[Dab]T[Dap][Dab][Dab][dL][Abu][Dab][Dab]T; lactam 4-C) gave a Minimum inhibitory concentration [1] of 0.25 µg/mL (≈ 0.22 µM), a Minimum inhibitory concentration [2] of 0.5 µg/mL (≈ 0.44 µM) and a Minimum inhibitory concentration [3] of 0.5 µg/mL (≈ 0.44 µM). The Minimum inhibitory concentration [4] was under 0.125 µg/mL, the Minimum inhibitory concentration [5] was 0.25 µg/mL (≈ 0.22 µM) and the Minimum inhibitory concentration [6] was 0.5 µg/mL (≈ 0.44 µM). It also gave a Minimum inhibitory concentration [7] of under 0.125 µg/mL, a Minimum inhibitory concentration [8] of 0.25 µg/mL (≈ 0.22 µM) and a Minimum inhibitory concentration [9] of 2 µg/mL (≈ 1.76 µM). For the same compound, the Minimum inhibitory concentration [10] was under 0.125 µg/mL, the Minimum inhibitory concentration [11] was 1 µg/mL (≈ 0.88 µM) and the Minimum inhibitory concentration [12] was 0.5 µg/mL (≈ 0.44 µM). For the same compound, the Minimum inhibitory concentration ([13]; FADDI-AB030) was 0.5 µg/mL (≈ 0.44 µM).
`C[C@@H](O)[C@H]1C(=O)N2C(C(=O)O)=C(S[C@@H]3CN[C@H](CNS(N)(=O)=O)C3)[C@H](C)[C@H]12` [Doripenem, reference compound] showed an MIC [13, 14] of over 8 µg/mL.
In the case of `CO/N=C(\C(=O)N[C@@H]1C(=O)N2C(C(=O)[O-])=C(C[N+]3(C)CCCC3)CS[C@H]12)c1csc(N)n1` [Cefepime, reference compound], the MIC [13, 14] is reported as over 16 µg/mL.
For `C[C@@H](O)[C@H]1C(=O)N2C(C(=O)O)=C(S[C@@H]3CN[C@H](C(=O)Nc4cccc(C(=O)O)c4)C3)[C@H](C)[C@H]12` [Ertapenem, reference compound], the MIC [13, 14] was over 8 µg/mL.
Work on `COc1c(N2CCNC(C)C2)c(F)cc2c(=O)c(C(=O)O)cn(C3CC3)c12` (stereo not drawn) [Gatifloxacin, reference compound] yielded an MIC [13, 14] of over 4 µg/mL.
`C[C@H]1NCc2cc(-c3ccc4c(=O)c(C(=O)O)cn(C5CC5)c4c3OC(F)F)ccc21` [Garenoxacin, reference compound] gave an MIC [13, 14] of over 4 µg/mL.
Work on `C[C@@H](O)[C@H]1C(=O)N2C(C(=O)O)=C(S[C@@H]3CN[C@H](C(=O)N(C)C)C3)[C@H](C)[C@H]12` [Meropenem, reference compound] yielded an MIC [13, 14] of over 8 µg/mL.
Compound `C[C@H]1COc2c(N3CCN(C)CC3)c(F)cc3c(=O)c(C(=O)O)cn1c23` [Levofloxacin, reference compound] has an MIC [13, 14] of over 4 µg/mL.
For `CO/N=C(\C(=O)N[C@@H]1C(=O)N2C(C(=O)O)=C(CSc3nc(=O)c(=O)[nH]n3C)CS[C@H]12)c1csc(N)n1` [Ceftriaxone, reference compound], the MIC [13, 14] was over 32 µg/mL.
Compound `C[C@H]1[C@H](NC(=O)/C(=N\OC(C)(C)C(=O)O)c2csc(N)n2)C(=O)N1S(=O)(=O)O` [Aztreonam, reference compound] has an MIC [13, 14] of over 16 µg/mL.
`CCN1CCN(C(=O)N[C@@H](C(=O)N[C@@H]2C(=O)N3[C@@H]2SC(C)(C)[C@@H]3C(=O)O)c2ccccc2)C(=O)C1=O` [Piperacillin, reference compound] gave an MIC [13, 14] of over 64 µg/mL.
For `COc1c(N2C[C@@H]3CCCN[C@@H]3C2)c(F)cc2c(=O)c(C(=O)O)cn(C3CC3)c12` [Moxifloxacin, reference compound], the MIC [13, 14] was over 4 µg/mL.
`C[C@H]1c2cccc(O)c2C(=O)C2=C(O)[C@]3(O)C(=O)C(C(N)=O)=C(O)[C@@H](N(C)C)[C@@H]3[C@@H](O)[C@@H]21` [Doxycycline, reference compound] gave an MIC [13, 14] of over 8 µg/mL.
`CC(C)(O/N=C(\C(=O)N[C@@H]1C(=O)N2C(C(=O)[O-])=C(C[n+]3ccccc3)CS[C@H]12)c1csc(N)n1)C(=O)O` [Ceftazidime, reference compound] gave an MIC [13, 14] of over 16 µg/mL.
Compound `CN(C)[C@@H]1C(O)=C(C(N)=O)C(=O)[C@@]2(O)C(O)=C3C(=O)c4c(O)cccc4[C@@](C)(O)[C@H]3C[C@@H]12` [Tetracycline, reference compound] has an MIC [13, 14] of over 8 µg/mL.
For `CN(C)c1ccc(O)c2c1C[C@H]1C[C@H]3[C@H](N(C)C)C(O)=C(C(N)=O)C(=O)[C@@]3(O)C(O)=C1C2=O` [Minocycline, reference compound], the MIC [13, 14] was over 8 µg/mL.
Compound Gentamicin [reference compound] has a Minimum inhibitory concentration ([13]; clinically used antibiotics, clinical isolate A. baumannii FADDI-AB030) of over 8 µg/mL.
In the case of `CC1(C)S[C@@H]2[C@H](NC(=O)[C@H](N)c3ccccc3)C(=O)N2[C@H]1C(=O)O` [Ampicillin, reference compound], the MIC [13, 14] is reported as over 16 µg/mL.
`CN(C)c1cc(NC(=O)CNC(C)(C)C)c(O)c2c1C[C@H]1C[C@H]3[C@H](N(C)C)C(O)=C(C(N)=O)C(=O)[C@@]3(O)C(O)=C1C2=O` [Tigecycline, reference compound] showed an MIC ([13]; FADDIAB030, read-out: minimum inhibitory concentration) of 4 µg/mL (≈ 6.83 µM).
In the case of `C[C@@H](O)[C@H]1C(=O)N2C(C(=O)O)=C(SCCN=CN)C[C@H]12` [Imipenem, reference compound], the MIC [13, 14] is reported as over 8 µg/mL.
Compound `NCC[C@H](O)C(=O)N[C@@H]1C[C@H](N)[C@@H](O[C@H]2O[C@H](CN)[C@@H](O)[C@H](O)[C@H]2O)[C@H](O)[C@H]1O[C@H]1O[C@H](CO)[C@@H](O)[C@H](N)[C@H]1O` [Amikacin, reference compound] has an MIC [13, 14] of over 32 µg/mL.
In the case of `NC[C@H]1O[C@H](O[C@H]2[C@H](O)[C@@H](O[C@H]3O[C@H](CO)[C@@H](O)[C@H](N)[C@H]3O)[C@H](N)C[C@@H]2N)[C@H](N)C[C@@H]1O` [Tobramycin, reference compound], the MIC [13, 14] is reported as over 16 µg/mL.

— patent US11225505B2, “Antimicrobial polymyxin derivative compounds” (MONASH UNIVERSITY, priority 2015, dated 2022)
